Measured values published in patent publication US10179789B2, “Methylenedioxybenzo [I] phenanthridine derivatives used to treat cancer” (Rutgers, The State University of New Jersey, priority 2009, dated 2019).
Read-outs that look alike come from different tables or passages of the source.

Columns and labels:
human topoisomerase I = molecular target: T1, human topoisomerase I (Homo sapiens, UniProt P11387); assay: Test A. Topoisomerase I-mediated DNA cleavage assay; assay type: biochemical; settings: Relative Effective Concentration; relative to camptothecin arbitrarily assumed as 0.2; same 10% cleavage on plasmid DNA
T1 construct: unnamed fusion partner (recombinant fusion protein, T7 expression system); made in house; host or cells: Escherichia coli
T1 sequence (P11387 1-765): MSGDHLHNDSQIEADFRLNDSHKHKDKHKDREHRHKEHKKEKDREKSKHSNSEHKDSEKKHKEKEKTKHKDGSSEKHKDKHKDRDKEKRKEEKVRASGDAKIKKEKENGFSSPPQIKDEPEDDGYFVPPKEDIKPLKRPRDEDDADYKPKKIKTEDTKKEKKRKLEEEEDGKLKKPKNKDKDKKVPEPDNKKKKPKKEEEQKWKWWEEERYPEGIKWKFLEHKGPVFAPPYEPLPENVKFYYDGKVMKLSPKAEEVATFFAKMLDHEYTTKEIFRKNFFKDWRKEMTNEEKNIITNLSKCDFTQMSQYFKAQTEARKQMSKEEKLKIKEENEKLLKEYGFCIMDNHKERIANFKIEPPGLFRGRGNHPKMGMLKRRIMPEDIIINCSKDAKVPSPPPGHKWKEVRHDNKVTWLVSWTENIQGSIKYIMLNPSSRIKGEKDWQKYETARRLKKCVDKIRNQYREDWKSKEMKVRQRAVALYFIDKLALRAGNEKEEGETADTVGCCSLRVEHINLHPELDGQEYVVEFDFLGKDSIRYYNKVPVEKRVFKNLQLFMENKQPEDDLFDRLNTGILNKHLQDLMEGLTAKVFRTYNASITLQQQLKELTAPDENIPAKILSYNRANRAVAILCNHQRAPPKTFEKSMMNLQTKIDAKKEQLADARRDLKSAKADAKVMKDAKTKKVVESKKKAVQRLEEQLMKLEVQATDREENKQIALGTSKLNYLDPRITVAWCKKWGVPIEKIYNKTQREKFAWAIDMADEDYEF
Description: Test A. Topoisomerase I—Mediated DNA Cleavage Assay Human topoisomerase I was expressed in Escherichia coli and isolated as a recombinant fusion protein using a T7 expression system as described previously (31). Plasmid YepG was also purified by the alkali lysis method followed by phenol deproteination and CsCl/ethidium isopycnic centrifugation method as described (32). The 3′ end labeling of the plasmid was accomplished by digestion with a restriction enzyme followed by end filling with Klenow polymerase as previously described (33). The cleavage assays were performed as previously reported (34,35). The drug and the DNA in presence of topoisomerase I was incubated for 30 min at room temperature. The reactions were terminated by the addition of 5 μL of 5% SDS and 1 mg/mL […] with an additional 1 h of incubation at 37° C. […] After development of the gels, typically 24-h exposure was used to obtain autoradiograms outlining the extent of DNA fragmentation. Topoisomerase I-mediated DNA cleavage values are reported as Relative Effective Concentration (REC). […] Results for the assay for representative compounds of the invention of formula I along with comparison compounds are shown in Table 1.

[1] = system: RPMI 8402 human lymphoblast cells; assay: Test B. MTT cytotoxicity assay, RPMI8402; assay type: cell-based
Protocol: (§1) Test B. Cytotoxic Assays (Cancer Cell Lines and Efflux Transporter Cell Lines)
(§2) The cytotoxicity was determined using the MTT-microtiter plate tetrazolinium cytotoxicity assay (MTA). The human lymphoblast RPMI 8402 and its camptothecin-resistant variant cell line, CPT-K5 was provided by Dr. Toshiwo Andoh (Aichi Cancer Center Research Institute, Nagoya, Japan). (36) The P388 mouse leukemia cell line and its CPT-resistant TOP1-deficient variant P388/CPT45 (37) were obtained from Michael R. Mattern and Randal K. Johnson (GlaxoSmithKline, King of Prussia, Pa.). The KB3-1 cell line and its multidrug-resistant variant KBV-1 (38) were obtained from K. V. Chin (The Cancer Institute of New Jersey, New Brunswick, N.J.). The KBH5.0 cell line as noted previously (21) was derived from KB3-1 by stepwise selection against Hoechst 33342. The cytotoxicity assay was performed using 96-well microtiter plates. Cells were grown in suspension at 37° C. in 5% CO2 and maintained by regular passage in RPMI medium supplemented with 10% heat inactivated fetal bovine serum, L-glutamine (2 mM), penicillin (100 U/mL), and Streptomycin (0.1 mg/mL). For determination of IC50, cells were exposed continuously for FOUR days to varying concentrations of drug, and MTT assays were performed at the end of the fourth day. […] All assays were performed at least twice in six replicate wells.

[2] = system: CPT-K5 (camptothecin-resistant variant of RPMI 8402); assay: Test B. MTT cytotoxicity assay, CPT-K5; assay type: cell-based, human
Protocol: as §1, §2

[3] = system: P388 mouse leukemia cell line; assay: Test B. MTT cytotoxicity assay, P388; assay type: cell-based
Protocol: as §1, §2

[4] = system: P388/CPT45 (CPT-resistant TOP1-deficient variant of P388); assay: Test B. MTT cytotoxicity assay, P388/CPT45; assay type: cell-based, mouse; settings: read-out: Cytotoxicity IC50 P388/CPT45
Protocol: as §1, §2

[5] = Cytotoxicity on KB3-1 (parent cell line); assay type: cell-based; settings: human
Protocol: as §2
(§3) The cytotoxicity of the representative compounds of the invention were also tested on cell line KB3-1 (parent cell line), KBV-1 (a variant that overexpresses efflux transporter MDR1) and KBH5.0 (a variant that overexpresses BCRP). Differences in the relative cytotoxicity between the parent and variant cell lines may be indicative of a compound that is a substrate for an efflux transporter. […] Accordingly, compounds of the invention of formula I may be useful to treat tumors that are resistant to other anticancer agents, especially anticancer agents that are susceptible to efflux by BCRP (e.g. anthracyclines, mitoxantrone, topotecan, irinotecan, bisanthrone, doxorubicin, daunorubicin, and epirubin.

MDR1 = assay: Cytotoxicity on KBV-1 (overexpresses MDR1); assay type: cell-based; settings: human
Protocol: as §2, §3

BCRP = assay: Cytotoxicity on KBH5.0 (overexpresses BCRP); assay type: cell-based; settings: human
Protocol: as §2, §3

[6] = system: KBH5.0 (variant that overexpresses BCRP); assay: Cytotoxicity on KBH5.0 (overexpresses BCRP); assay type: cell-based; settings: for substrate for BCRP: not told
Protocol: as §2, §3

KB3-1 cell line = assay: Cytotoxicity on KB3-1 (parent cell line); assay type: cell-based
Protocol: as §2, §3

[7] = system: KBV-1 (variant that overexpresses efflux transporter MDR1); assay: Cytotoxicity on KBV-1 (overexpresses MDR1); assay type: cell-based
Protocol: as §2, §3

[8] = Homo sapiens, RPMI 8402, 96 h, read-out: Cytotoxicity IC50 RPMI8402
[9] = Homo sapiens, CPT-K5, 96 h, read-out: Cytotoxicity IC50 CPT-K5
[10] = Mus musculus, P388, 96 h, read-out: Cytotoxicity IC50 P388

| TOP1 Mediated DNA Cleavage (REC Value) (human topoisomerase I) | melting point [°C] | SMILES | IC50 [1, 8] [nM] | IC50 [2, 9] [nM] | IC50 [3, 10] [nM] | IC50 ([4]; Mus musculus, P388CPT45, 96 h) [nM] | IC50 at 4 days [5] [nM] | IC50 at 4 days (MDR1) [nM] | IC50 at 4 days (BCRP) [nM] | substrate for BCRP [6] | other results |
| --- | --- | --- | --- | --- | --- | --- | --- | --- | --- | --- | --- |
| 0.09 | 222 to 225 | COc1cc2cc(C(=O)NCC(C)(C)N(C)C)c3c4cc5c(cc4ncc3c2cc1OC)OCO5 [Compound 34, 2,3-Dimethoxy-8,9-methylenedioxybenzo[i]phenanthridine-11-carboxylic acid 2-(dimethylamino)-2-methylpropylamide] | 3 | 500 | 2 | 230 | 3 | 65 | 10 | not substrates for BCRP |  |
| 3.4 | 235 to 237 | COc1cc2c(C(=O)NCCCC(C)(C)N(C)C)cc3c4cc5c(cc4ncc3c2cc1OC)OCO5 [Compound 43, 2,3-Dimethoxy-N-(4-(dimethylamino)-4-methylpentyl)-8,9-methylenedioxybenzo[i]phenanthridine-12-carboxamide] | 160 | 3000 | 180 | 400 | 250 | 2800 | 600 |  |  |
| 0.4 | 233 to 235 | COc1cc2cc(C(=O)NCCC(C)(C)N(C)C)c3c4cc5c(cc4ncc3c2cc1OC)OCO5 [Compound 44, 2,3-Dimethoxy-8,9-methylenedioxybenzo[i]phenanthridine-11-carboxylic acid 3-(dimethylamino)-3-methylbutylamide] | 150 | 5000 | 270 | 1270 | 240 | > 10000 | 470 |  |  |
| 2.3 | 228 to 230 | COc1cc2c(C(=O)NCCC(C)(C)N(C)C)cc3c4cc5c(cc4ncc3c2cc1OC)OCO5 [Compound 42, 2,3-Dimethoxy-N-(3-(dimethylamino)-3-methylbutyl)-8,9-methylenedioxybenzo[i]phenanthridine-12-carboxamide] | 25 | 2070 | 90 | 530 | 50 | 2500 | 160 |  |  |

| SMILES | TOP1 Mediated DNA Cleavage (REC Value) (human topoisomerase I) | melting point [°C] | IC50 [1, 8] [nM] | IC50 [2, 9] [nM] | IC50 [3, 10] [nM] | IC50 ([4]; Mus musculus, P388CPT45, 96 h) [nM] | IC50 at 4 days [5] [nM] | IC50 at 4 days (MDR1) [nM] | IC50 at 4 days (BCRP) [nM] | substrate for BCRP [6] | other results |
| --- | --- | --- | --- | --- | --- | --- | --- | --- | --- | --- | --- |
| COc1cc2c(C(=O)NCC(C)(C)N(C)C)cc3c4cc5c(cc4ncc3c2cc1OC)OCO5 [Compound 31, 2,3-Dimethoxy-N-(2-(dimethylamino)-2-methylpropyl)-8,9-methylene-dioxybenzo[i] phenanthridine-12-carboxamide] | 0.1 |  |  |  |  |  |  |  |  | not substrates for BCRP | IC50 [1]: 2 nM; IC50 [2]: 790 nM; IC50 [3]: 2 nM; IC50 ([4]; P388/CPT45, four days continuous exposure, MTT): 250 nM; IC50 (KB3-1 cell line): 1 nM; IC50 [7]: 30 nM; IC50 [6]: 4 nM |
| CC[C@@]1(O)C(=O)OCc2c1cc1n(c2=O)Cc2cc3ccccc3nc2-1 [CPT, Camptothecin, reference compound] | 0.2 |  |  |  |  | > 10000 |  |  |  |  | IC50 ([1]; Homo sapiens, RPMI 8402, 96 h, RPMI8402, four days continuous exposure, MTT, read-out: Cytotoxicity IC50 RPMI8402): 6 nM; IC50 ([2]; Homo sapiens, 96 h, CPT-K5, four days continuous exposure, MTT, read-out: Cytotoxicity IC50 CPT-K5): > 10000 nM; IC50 ([3]; Mus musculus, 96 h, P388, four days continuous exposure, MTT, read-out: Cytotoxicity IC50 P388): 14 nM; IC50 at 4 days ([5]; KB3-1 cells (parent cell line), KB3-1 parent cell line, read-out: Cytotoxicity KB3-1): 15 nM; IC50 at 4 days (MDR1; KBV-1, overexpresses MDR1, read-out: Cytotoxicity KBV-1): 25 nM; IC50 at 4 days (BCRP; KBH5.0 cells (KB3-1 variant that overexpresses BCRP), KBH5.0, overexpresses BCRP, read-out: Cytotoxicity KBH5.0): 26 nM |
